Laboratory results: patent US6514998B1 (priority 1994, dated 2003)

Columns and labels:
Fusarium culmorum = assay: Activity against Fusarium culmorum on wheat seedlings; format: in vivo; conditions: application rate 500 ppm; wheat seedlings (Kanzler) sprayed one day before infection; 6 days; untreated plants 60% attack
Experimental: On the following day, the plants were infected with a spore suspension of Fusarium culmorum. The plants treated in this way were incubated for 6 days at 22-24° C. and a relative atmospheric humidity of >90%. Assessment was carried out visually.

Pyricularia oryzae = format: in vivo; conditions: application rate 250 ppm; rice seedlings (Tai Nong 67) sprayed 24 h before infection; 6 days; untreated plants 70% attack
Botrytis cinerea = conditions: application rate 500 ppm; paprika seedlings (Neusiedler Ideal Elite) sprayed before infection; 5 days; untreated plants 80% attack

COC(=O)N(OC)c1ccccc1COc1ncn(-c2ccccc2)n1 [Compound 2]
attack (visual assessment) (Fusarium culmorum): 5%
attack (visual assessment) (Pyricularia oryzae): 3%
attack (visual assessment) (Botrytis cinerea): 5%
